Calls of active or inactive are those of the source.

For assay [1], the target named is T1, Carboxy-terminal domain RNA polymerase II polypeptide A small phosphatase 1 (Homo sapiens, UniProt Q9GZU7).
T1 sequence (Q9GZU7 whole entry): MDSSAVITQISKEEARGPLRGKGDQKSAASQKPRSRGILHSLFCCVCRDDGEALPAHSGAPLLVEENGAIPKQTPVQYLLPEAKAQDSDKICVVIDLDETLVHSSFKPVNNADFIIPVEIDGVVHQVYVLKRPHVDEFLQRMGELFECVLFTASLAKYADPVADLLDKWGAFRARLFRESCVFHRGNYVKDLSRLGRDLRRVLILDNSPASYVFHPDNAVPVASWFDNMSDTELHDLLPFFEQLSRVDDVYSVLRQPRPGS
Briefly: CTDSP1 inhibitors, concentration-response, biochemical, absorbance readout, ultra-high-throughput screen actives (AID 540297). Type of assay: functional.

The target in assay [2] is Glucose-6-phosphate 1-dehydrogenase (Homo sapiens, UniProt P11413). As to the kind of experiment: inhibition of Homo sapiens G6PD, dose series – biochemical, fluorescence, selectivity assay for P. falciparum G6PD inhibitor project, dose response (AID 504792). Type of assay: functional.
Chain of Glucose-6-phosphate 1-dehydrogenase (P11413 whole entry): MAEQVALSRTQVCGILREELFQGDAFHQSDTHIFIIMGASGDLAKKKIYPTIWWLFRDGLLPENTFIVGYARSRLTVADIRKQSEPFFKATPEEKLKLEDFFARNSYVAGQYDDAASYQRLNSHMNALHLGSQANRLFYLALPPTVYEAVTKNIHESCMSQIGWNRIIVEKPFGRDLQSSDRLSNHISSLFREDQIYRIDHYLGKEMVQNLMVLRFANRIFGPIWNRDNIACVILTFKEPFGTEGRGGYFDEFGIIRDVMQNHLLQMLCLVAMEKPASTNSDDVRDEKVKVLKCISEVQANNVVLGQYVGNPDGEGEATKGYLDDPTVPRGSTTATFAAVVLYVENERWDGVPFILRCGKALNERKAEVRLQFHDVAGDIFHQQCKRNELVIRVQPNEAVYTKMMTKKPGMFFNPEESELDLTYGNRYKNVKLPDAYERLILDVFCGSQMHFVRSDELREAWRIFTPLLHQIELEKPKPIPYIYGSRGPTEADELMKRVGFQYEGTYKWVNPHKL
Assay [3] can be described thus: NIH-3T3 fibroblast cytotoxicity, dose response, cytotoxicity control, cell-based, fluorescence, Alamar Blue, secondary assay (AID 2327).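 Further: NIH-3T3 mouse fibroblasts cultured with fluconazole at 8 µg/mL.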 It counts as functional.
The nature of assay [4]: fluconazole-exposed Candida albicans growth modulators – fluorescence, retest, confirmation (AID 2467). It counts as functional, cell-based.
In the next assay the target is Large T antigen (Simian virus 40, UniProt P03070). It counts as functional, Betapolyomavirus macacae.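 Further: Confirmatory-stage PubChem screen for compounds that inhibit SV40 T antigen.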
Chain of Large T antigen (P03070 whole entry): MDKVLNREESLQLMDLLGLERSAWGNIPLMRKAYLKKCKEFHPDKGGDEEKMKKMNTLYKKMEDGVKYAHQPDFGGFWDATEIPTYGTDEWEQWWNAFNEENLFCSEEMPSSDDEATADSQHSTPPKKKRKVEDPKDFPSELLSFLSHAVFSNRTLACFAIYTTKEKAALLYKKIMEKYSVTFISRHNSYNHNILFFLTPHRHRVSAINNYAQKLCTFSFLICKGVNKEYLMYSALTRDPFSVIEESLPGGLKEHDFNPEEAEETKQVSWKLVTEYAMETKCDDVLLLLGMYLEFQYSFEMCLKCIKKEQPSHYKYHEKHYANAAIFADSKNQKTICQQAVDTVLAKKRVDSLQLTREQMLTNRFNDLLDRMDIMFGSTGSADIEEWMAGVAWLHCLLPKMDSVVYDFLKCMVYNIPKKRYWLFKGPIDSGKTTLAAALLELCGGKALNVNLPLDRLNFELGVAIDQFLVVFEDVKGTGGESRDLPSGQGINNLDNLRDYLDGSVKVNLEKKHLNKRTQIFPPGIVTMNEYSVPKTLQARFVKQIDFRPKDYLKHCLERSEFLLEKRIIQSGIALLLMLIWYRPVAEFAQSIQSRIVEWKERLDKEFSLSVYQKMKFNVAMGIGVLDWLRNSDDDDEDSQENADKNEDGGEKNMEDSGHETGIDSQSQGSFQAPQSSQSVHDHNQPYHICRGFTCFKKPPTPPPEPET
The target of assay [5] is FAD-linked sulfhydryl oxidase ALR (Homo sapiens, UniProt P55789). As to the kind of experiment: ALR-catalysed DTT oxidation blockers – biochemical, H2O2 detection, luminescence, cherry-pick, dose response (AID 493248).
Chain of FAD-linked sulfhydryl oxidase ALR (P55789 whole entry): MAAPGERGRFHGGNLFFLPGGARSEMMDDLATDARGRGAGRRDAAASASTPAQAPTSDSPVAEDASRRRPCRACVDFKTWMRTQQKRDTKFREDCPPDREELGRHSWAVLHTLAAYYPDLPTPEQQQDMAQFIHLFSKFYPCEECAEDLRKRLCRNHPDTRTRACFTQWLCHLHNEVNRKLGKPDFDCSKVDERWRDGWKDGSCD
Assay [6] is described as follows: cells. Type of assay: functional, cell-based.
Assay [7] in a line: cells. Type of assay: functional, cell-based. The source holds these as a separate data set.
Assay [8] is described as follows: cells. It counts as functional.
Assay [9] concerns the target T2, Calpain-2 catalytic subunit (Sus scrofa, UniProt P43367).
T2 sequence (P43367 whole entry): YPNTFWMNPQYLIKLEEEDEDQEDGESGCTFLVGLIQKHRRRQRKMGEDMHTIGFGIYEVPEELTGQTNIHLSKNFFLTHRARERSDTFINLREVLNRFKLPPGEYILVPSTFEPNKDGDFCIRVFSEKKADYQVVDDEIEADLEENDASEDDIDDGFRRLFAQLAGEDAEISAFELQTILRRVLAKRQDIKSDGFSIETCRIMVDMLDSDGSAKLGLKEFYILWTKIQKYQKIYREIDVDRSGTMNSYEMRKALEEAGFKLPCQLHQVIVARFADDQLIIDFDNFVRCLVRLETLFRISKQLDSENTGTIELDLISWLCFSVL
Briefly: m-calpain protease blockers, concentration series – biochemical, fluorogenic peptide substrate, dose response (AID 1420). It counts as functional.

Assay [10] addresses T3, Heat shock factor protein 1 (Mus musculus, UniProt P38532).
T3 sequence (P38532 whole entry): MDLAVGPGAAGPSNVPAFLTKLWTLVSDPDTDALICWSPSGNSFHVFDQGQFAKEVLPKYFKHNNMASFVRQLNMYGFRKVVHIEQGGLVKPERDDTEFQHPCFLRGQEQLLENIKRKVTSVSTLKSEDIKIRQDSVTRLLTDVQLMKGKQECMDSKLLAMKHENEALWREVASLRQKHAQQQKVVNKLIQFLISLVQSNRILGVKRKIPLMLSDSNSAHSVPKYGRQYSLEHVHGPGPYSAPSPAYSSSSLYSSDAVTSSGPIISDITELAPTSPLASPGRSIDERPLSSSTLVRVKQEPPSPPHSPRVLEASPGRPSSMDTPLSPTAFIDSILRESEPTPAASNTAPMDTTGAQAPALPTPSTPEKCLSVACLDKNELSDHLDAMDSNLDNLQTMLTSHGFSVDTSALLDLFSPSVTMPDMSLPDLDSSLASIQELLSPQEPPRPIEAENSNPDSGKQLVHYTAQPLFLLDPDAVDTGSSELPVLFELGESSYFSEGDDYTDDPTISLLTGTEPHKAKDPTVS
As to the kind of experiment: decrease of HSF1-responsive luciferase luminescence – cell-based, NIH3T3, dose retest, confirmation (AID 2382).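 Further: NIH3T3 fibroblasts with HSF1-driven luciferase reporter stressed by proteasome inhibitor MG132; luminescence from HSF1-driven luciferase expression after 8 hours of MG132 stress.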 Type of assay: functional.

The target of a further assay is Cytochrome P450 2D6 (Homo sapiens, UniProt P10635).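 Further: CYP2D6 member of a cytochrome P450 panel assay.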
Chain of Cytochrome P450 2D6 (P10635 whole entry): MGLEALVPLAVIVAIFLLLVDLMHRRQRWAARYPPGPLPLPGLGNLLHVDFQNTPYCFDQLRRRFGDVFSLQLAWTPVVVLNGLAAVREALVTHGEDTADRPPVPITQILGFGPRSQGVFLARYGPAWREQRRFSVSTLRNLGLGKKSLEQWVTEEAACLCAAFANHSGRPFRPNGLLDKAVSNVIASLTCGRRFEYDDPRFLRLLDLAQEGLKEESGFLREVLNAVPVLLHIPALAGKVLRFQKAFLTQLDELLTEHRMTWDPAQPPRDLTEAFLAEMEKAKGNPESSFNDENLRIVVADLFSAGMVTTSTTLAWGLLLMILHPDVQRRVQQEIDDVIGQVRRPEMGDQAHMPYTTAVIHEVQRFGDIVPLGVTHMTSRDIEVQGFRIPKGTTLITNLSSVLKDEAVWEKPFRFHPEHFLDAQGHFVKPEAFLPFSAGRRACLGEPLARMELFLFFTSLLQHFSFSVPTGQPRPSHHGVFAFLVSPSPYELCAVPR
The nature of assay [11]: viability of uninfected HEp-2 cells – cell-based, HTS, cytotoxicity control for RSV inhibitor project, dose response (AID 2410). To be noted: human respiratory syncytial virus. It counts as functional.
The target in assay [12] is T4, Replicative DNA helicase DnaB (Mycobacterium tuberculosis, UniProt P9WMR3).
T4 sequence (P9WMR3 whole entry): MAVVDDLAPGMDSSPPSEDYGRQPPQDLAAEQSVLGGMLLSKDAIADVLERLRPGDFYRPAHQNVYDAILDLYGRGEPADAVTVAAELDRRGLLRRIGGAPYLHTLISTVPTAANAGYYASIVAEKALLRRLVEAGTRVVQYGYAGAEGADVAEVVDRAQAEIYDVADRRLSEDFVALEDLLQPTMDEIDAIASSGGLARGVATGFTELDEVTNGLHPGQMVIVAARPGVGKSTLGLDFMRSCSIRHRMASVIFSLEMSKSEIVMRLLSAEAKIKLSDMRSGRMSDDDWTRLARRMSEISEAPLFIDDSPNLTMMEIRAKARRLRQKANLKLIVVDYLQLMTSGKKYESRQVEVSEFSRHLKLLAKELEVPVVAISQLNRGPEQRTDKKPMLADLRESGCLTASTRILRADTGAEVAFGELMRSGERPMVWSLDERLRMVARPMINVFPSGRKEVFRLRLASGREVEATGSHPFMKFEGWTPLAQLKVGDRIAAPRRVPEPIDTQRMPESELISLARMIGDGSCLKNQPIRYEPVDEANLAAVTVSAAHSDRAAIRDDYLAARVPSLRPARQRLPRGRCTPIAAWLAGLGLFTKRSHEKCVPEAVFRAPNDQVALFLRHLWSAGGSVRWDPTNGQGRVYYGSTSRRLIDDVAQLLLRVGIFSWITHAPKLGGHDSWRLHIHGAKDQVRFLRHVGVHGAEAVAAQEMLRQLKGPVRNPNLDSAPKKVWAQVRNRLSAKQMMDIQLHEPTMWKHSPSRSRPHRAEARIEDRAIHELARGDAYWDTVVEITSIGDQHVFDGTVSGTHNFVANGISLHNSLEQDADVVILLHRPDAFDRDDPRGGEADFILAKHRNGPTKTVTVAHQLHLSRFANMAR
As to the kind of experiment: DnaB intein splicing inhibitors, dose response, biochemical, cell-free fluorescence (AID 449749). Type of assay: functional.

Another assay addresses T5, Protein RecA (Mycobacterium tuberculosis, UniProt P9WHJ3).
T5 sequence (P9WHJ3 whole entry): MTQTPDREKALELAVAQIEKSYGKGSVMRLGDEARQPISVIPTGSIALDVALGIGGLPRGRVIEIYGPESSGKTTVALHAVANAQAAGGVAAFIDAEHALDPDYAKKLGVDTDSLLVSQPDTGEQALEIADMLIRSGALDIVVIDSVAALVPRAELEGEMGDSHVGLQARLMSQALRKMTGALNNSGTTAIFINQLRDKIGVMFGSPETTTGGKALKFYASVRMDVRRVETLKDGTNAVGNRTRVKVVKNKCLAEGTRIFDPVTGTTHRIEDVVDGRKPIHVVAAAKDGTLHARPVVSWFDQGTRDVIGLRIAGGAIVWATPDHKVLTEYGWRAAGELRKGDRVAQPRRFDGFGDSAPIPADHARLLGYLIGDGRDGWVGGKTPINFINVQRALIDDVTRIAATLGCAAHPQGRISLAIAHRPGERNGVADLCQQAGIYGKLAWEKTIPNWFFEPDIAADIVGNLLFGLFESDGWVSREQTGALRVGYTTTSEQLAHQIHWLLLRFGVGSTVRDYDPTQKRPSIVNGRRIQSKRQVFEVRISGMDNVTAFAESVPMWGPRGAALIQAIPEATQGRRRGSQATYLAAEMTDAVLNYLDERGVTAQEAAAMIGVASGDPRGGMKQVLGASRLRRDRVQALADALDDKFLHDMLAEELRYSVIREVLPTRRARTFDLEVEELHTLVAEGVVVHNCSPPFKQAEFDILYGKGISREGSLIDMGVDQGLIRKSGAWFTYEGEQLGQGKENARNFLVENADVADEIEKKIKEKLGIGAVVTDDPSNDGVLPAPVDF
Briefly: Fluorescence Cell-Free Homogeneous Dose Retest to Identify Inhibitors of RecA-Intein Splicing Activity. [Related pubchem assays (depositor defined):AID2097, AID2223, AID489010, AID492950]. Type of assay: functional.

For `Cc1oc2c(C)c3oc(=O)c(CC(=O)N[C@@H](CCCNC(N)=O)C(=O)O)c(C)c3cc2c1C`, in [1], the IC50 is 9.59 µM (active).

Regarding `CCn1c(N)c(C(=O)NC)sc1=S`, in assay [2], the IC50 was > 80 µM (inactive).

`CCn1c(=O)c(C(=O)NCc2cccnc2)c(O)c2ccccc21`: the EC50 in assay [3] is > 150 µM (inactive); in assay [4] it was > 38 µM (not active). For the molecule `COc1ccc(N2C(=O)CC(Sc3n[nH]c(-c4cccc(C)c4)n3)C2=O)cc1` (stereo not given), the IC50 at Large T antigen is 76.5 µM (active).

Consider `O=C(CNC(=O)c1ccccc1)NCC(=O)OCC(=O)c1ccc([N+](=O)[O-])cc1`, for which, in assay [2], the IC50 is > 80 µM (inactive). Take `COc1ccc(NC(=O)NC(C)c2ccccc2)cc1` (stereo not given): the EC50 was 73.5 µM (active) in [3] and > 38 µM (not active) in assay [4].

Regarding `CCCc1cc(C(=O)Nc2sc3c(c2C#N)CCC3)no1`, the EC50 in assay [3] was > 150 µM (inactive); in assay [4], 1.02 µM (active). Regarding `CCOc1cc(N2CCOCC2)c(OCC)cc1NC(=O)COC(=O)CCOc1ccc(C)cc1`, the IC50 on Large T antigen is > 100 µM (active).

Turning to `COc1ccc2c(c1OC)C(=O)N1N=C(c3ccc(O)cc3)CC21` (stereo not given), in [3], the EC50 is > 150 µM (inactive). The AC50 in assay [5] is 1.11 µM (active).

As for `C[N+]1(CC(=O)OCCCc2ccccc2)CCCC1`, the IC50 in assay [1] was 6.36 µM (active). On the same count and under the same terms, the result for `CCc1ccc(NC(=O)C[S+]([O-])CC(=O)Nc2ccc(F)cc2F)cc1` (stereo not given) reads 11.2 µM (active). `CCC(C)c1ccccc1OCCn1ccnc1` (stereo not given): the IC50 in [2] is > 80 µM (inactive). `Cc1cc(=O)oc2cc(OCC(=O)N3c4ccccc4NC(=O)C3(C)C)ccc12`: in [1], the IC50 was 8.21 µM (active). As for `Cc1cc(C(=O)O)oc(=O)c1`, the results for the 50% effective concentration (EC50) in the assay “cells [6]” and in the assay “cells [7]” were > 350 µM (not active) and 58.9 µM (active), respectively. As to `O=C(NN=C(Cc1ccccc1)Cc1ccccc1)c1ccncc1`, in “cells [8]”, the IC50 is 0.17 µM (active).

With `O=C(O)c1ccccc1C(=O)NC1=NN(c2ccccc2)CC1`, on Large T antigen, the 50% inhibitory concentration (IC50) is 14.2 µM (active).

As to `CCCCn1c(N)c(-c2nc3ccccc3o2)c2c([N+](=O)[O-])nn(C)c(=O)c21`, in [1], the half-maximal inhibitory concentration (IC50) is 4.75 µM (active). Regarding `Cc1ccc(CSc2ccc3nnc(-c4cccnc4)n3n2)cc1`, the IC50 in assay [9] is 5.64 µM (active).

For the molecule `COc1ccc(CNC(=O)C2CCN(S(=O)(=O)c3ccc(-c4nn[nH]n4)cc3)CC2)cc1`, in assay [9], the half-inhibitory concentration (IC50) is 14.9 µM (not active). For the molecule `C=CCc1c(C)nc2c(-c3ccccc3)cnn2c1N1CCOCC1`, the results for the 50% effective concentration (EC50) (in the assay “cells [6]”; in assay [10]; in the assay “cells [7]”) were > 350 µM (not active), > 195 µM (not active) and > 350 µM (not active), respectively.

On to `O=C(Nc1ccccc1N1CCOCC1)c1cc(F)cc(F)c1`, for which the EC50 is > 160 µM (inactive) in assay [3] and 1.64 µM (active) in [4].

`COc1cccc(C2=CC(c3ccccc3)n3nnnc3N2)c1` (stereo not given): the IC50 in [9] was 2.32 µM (not active). Further, the half-maximal activity concentration (AC50) on Cytochrome P450 2D6 is 31.6 µM (inconclusive). With `COc1ccc2c(c1)-c1nc(NC(=O)c3ccco3)sc1CC2`, the cytotoxic concentration (CC50) in assay [11] is 18.4 µM (active). Besides, the EC50 in “cells [6]” was > 350 µM (not active); in “cells [7]”, 23 µM (active). On to `Cc1ccc(NC(=O)COC(=O)C2=COCCO2)c([N+](=O)[O-])c1`, for which the half-maximal inhibitory concentration (IC50) in “cells [8]” is 3.39 µM (active). On to `CC(=O)Nc1ccc(S(=O)(=O)[N-]C2=C([n+]3ccn(-c4ccccn4)c3)C(=O)c3ccccc3C2=O)cc1`, for which the concentration for a half-maximal effect (EC50) in the assay “cells [6]” and in “cells [7]” was > 350 µM (not active) each time. In the case of `CC(C)NC(=O)C1CCCN(S(C)(=O)=O)C1` (stereo not given), the IC50 in [9] was 7.4 µM (not active). Same read-out and setting: the result for `Cc1ccc(OCC(=O)NNC(=O)C(C)Sc2ncnc3sc(C)c(C)c23)cc1` (stereo not given) reads 2.51 µM (not active).

In the case of `C=C(C)CNC(=S)N/N=C/c1c(F)cccc1F`, in [9], the half-maximal inhibitory concentration (IC50) was 20.3 µM (not active). With `COc1cccc(C(C[N+](=O)[O-])c2c(C)[nH]n(-c3ccccc3)c2=O)c1` (stereo not given), the EC50 in the assay “cells [6]” is > 350 µM (not active); in the assay “cells [7]”, > 350 µM (not active); on Protein RecA, 2.25 µM (active). In addition, the AC50 in assay [12] was 16.5 µM (active). For the molecule `COc1cccc(-c2c(C(=O)N/N=C/c3ccc(C)o3)nnn2-c2nonc2N)c1`, the IC50 in [2] is > 80 µM (inactive).

The record behind these values is ChEMBL document CHEMBL1201862, “PubChem BioAssay data set” (2004).
